Patent US5889148A, “Antibiotic peptides” (priority 1995, dated 1999)
No end group written: not given here.

Key:
red blood cells = type: cell-based, human
Method: To 190 μl of the red blood cell-containing solution thus prepared, was added 10 μl of peptide solution prior to the incubation at 37° C. for 30 min. After incubation, centrifugation followed to obtain supernatant. Then, a level (%) of cell lysis caused by peptides was determined by the examination of absorbance at 576 nm (see: Table 12). At this moment, TEDFK, TEDFK-1A, M5, M6, M19, M22 and M32 were chosen as peptide fragments of Tenecin, and an antibiotic peptide KLK (see: Natori, S. et al., J. Biochem., 117(6):1312-1316(1995)) and a commercially available antibiotic, Amphotericin B(Sigma, USA) known to lyse a red blood cell were employed as controls, respectively.

[1] = test system: Candida albicans (ATCC 36232); assay: MIC test, antifungal activity; type: cell-based
Method: (§1) Antibacterial and antifungal activities of the peptides were determined by employing MIC test as follows:
(§2) To determine antifungal activity, a test organism Candida albicans (ATCC 36232) was cultured on Sabouraud dextrose agar plate for 24 to 48 hrs, and colonies thus grown were suspended on Sabouraud dextrose medium(Gibco, USA) to have O.D.530 =0.5(3×10^6 cells) and further diluted with 100-fold to have O.D.530 =0.005(3×10^4 cells). 100 μl of Candida albicans culture thus prepared was pipetted on 96-well microplates which had already contained 100 μl of a serially diluted peptide solution.

[2] = test system: Staphylococcus aureus (ATCC 6538); assay: MIC test, antibacterial activity; type: cell-based
Method: as §1, §2
Antibacterial activity of peptide was determined analogously as above, with an exception that Staphylococcus aureus (ATCC 6538) selected as a test organism was cultured on M-3 medium(Gibco, USA) at 37° C. and cell number was adjusted to 2×10^8 cells before 100-fold dilution.

[3] = Table 8, TEDFK derivatives of group 1
[4] = Table 11, enantiomer, retro-inverso, D-amino acid derivatives of M22
[5] = Table 3, addition of an amino acid to N-terminal of TED
[6] = Table 4, addition of an amino acid to N-terminal of TEDF
[7] = Table 1, peptide fragments of Tenecin

C[C@@H]1[C@H](O)[C@@H](C)/C=C/C=C/C=C/C=C/C=C/C=C/C=C/[C@H](O[C@@H]2O[C@H](C)[C@@H](O)[C@H](N)[C@@H]2O)C[C@@H]2O[C@](O)(C[C@@H](O)C[C@@H](O)[C@H](O)CC[C@@H](O)C[C@@H](O)CC(=O)O[C@H]1C)C[C@H](O)[C@H]2C(=O)O [Amphotericin B]
cell lysis (in words) (red blood cells): cause cell lysis

KKYCNKKCVCK--NH2 [M6] (KKYCNKKCVCK-NH2; cysteine pairing not given here)
MIC C. albicans [1, 3]: 3.12 µg/mL
MIC S. aureus [2, 3]: 3.16 µg/mL

KKYCNXRVCVCR--NH2 [M4]
MIC C. albicans [1, 3]: 3.12 µg/mL
MIC S. aureus [2, 3]: 3.16 µg/mL

KKYIKKVFVFk--NH2 [M22-7]
MIC C. albicans [1, 4]: 3.12 µg/mL
MIC S. aureus [2, 4]: 3.11 µg/mL

KKYIkkVFVFK--NH2 [M22-27]
MIC C. albicans [1, 4]: 3.11 µg/mL
MIC S. aureus [2, 4]: 3.17 µg/mL

KKyIKKVFVFK--NH2 [M22-26]
MIC C. albicans [1, 4]: 3.15 µg/mL
MIC S. aureus [2, 4]: 3.16 µg/mL

KPYCNGKRVCVCR--NH2 (KPYCNGKRVCVCR-NH2; cysteine pairing not given here) [M2]
MIC C. albicans [1, 3]: 6.25 µg/mL
MIC S. aureus [2, 3]: 6.35 µg/mL

KWYCNGKRVCVCR--NH2 (KWYCNGKRVCVCR-NH2; cysteine pairing not given here) [M26]
MIC C. albicans [1, 3]: 6.25 µg/mL
MIC S. aureus [2, 3]: 6.35 µg/mL

KYCNGKRVCVCR--NH2 (KYCNGKRVCVCR-NH2; cysteine pairing not given here) [TEDK]
MIC C. albicans [1, 5]: 5 µg/mL
MIC S. aureus [2, 5]: 5 µg/mL

KYCNGKRVCVCRK--NH2 (KYCNGKRVCVCRK-NH2; cysteine pairing not given here) [M16]
MIC C. albicans [1, 3]: 6.25 µg/mL
MIC S. aureus [2, 3]: 6.35 µg/mL

LFYCNGKRVCVCR--NH2 (LFYCNGKRVCVCR-NH2; cysteine pairing not given here) [TEDFL]
MIC C. albicans [1, 6]: 100 µg/mL
MIC S. aureus [2, 6]: 30 µg/mL

LSVEAKGVKLGGGYCNGKRVCVCR--NH2 (LSVEAKGVKLGGGYCNGKRVCVCR-NH2; cysteine pairing not given here) [TEQ]
MIC C. albicans [1, 7]: > 100 µg/mL
MIC S. aureus [2, 7]: > 500 µg/mL

LYCNGKRVCVCR--NH2 (LYCNGKRVCVCR-NH2; cysteine pairing not given here) [TEDL]
MIC C. albicans [1, 5]: 5 µg/mL
MIC S. aureus [2, 5]: 5 µg/mL

PYCNGKRVCVCR--NH2 (PYCNGKRVCVCR-NH2; cysteine pairing not given here) [TEDP]
MIC C. albicans [1, 5]: 5 µg/mL
MIC S. aureus [2, 5]: 5 µg/mL

SFYCNGKRVCVCR--NH2 (SFYCNGKRVCVCR-NH2; cysteine pairing not given here) [TEDFS]
MIC C. albicans [1, 6]: 10 µg/mL
MIC S. aureus [2, 6]: 50 µg/mL

SYCNGKRVCVCR--NH2 (SYCNGKRVCVCR-NH2; cysteine pairing not given here) [TEDS]
MIC C. albicans [1, 5]: 50 µg/mL
MIC S. aureus [2, 5]: 10 µg/mL

VTCDILSSVEAKGVKL--NH2 (VTCDILSSVEAKGVKL-NH2) [TEC]
MIC C. albicans [1, 7]: > 100 µg/mL
MIC S. aureus [2, 7]: > 500 µg/mL

VTCDILSVEAKGVKLNDAACAAHC-LFRGRSGGYCNGKRVCVCR--CO2 H [Tenecin]
MIC C. albicans [1, 7]: > 500 µg/mL
MIC S. aureus [2, 7]: 3 µg/mL

WFYCNGKRVCVCR--NH2 (WFYCNGKRVCVCR-NH2; cysteine pairing not given here) [M29]
MIC C. albicans [1, 3]: 25 µg/mL
MIC S. aureus [2, 3]: 30 µg/mL

WFYCNGKRVCVCR--NH2 (WFYCNGKRVCVCR-NH2; cysteine pairing not given here) [TEDFW]
MIC C. albicans [1, 6]: 10 µg/mL
MIC S. aureus [2, 6]: 1 µg/mL

WYCNGKRVCVCR--NH2 (WYCNGKRVCVCR-NH2; cysteine pairing not given here) [TEDW]
MIC C. albicans [1, 5]: 20 µg/mL
MIC S. aureus [2, 5]: 20 µg/mL

YCNGKRVCVCR--NH2 (YCNGKRVCVCR-NH2; cysteine pairing not given here) [TED]
antifungal activity (in words) [1]: excellent antifungal activity
MIC C. albicans [1, 7]: 10 µg/mL
MIC against C. albicans ([1]; Table 2, modification of N-terminal residues of TED): 10 µg/mL
MIC C. albicans [1, 5]: 10 µg/mL
MIC S. aureus [2, 7]: 10 µg/mL
MIC S. aureus [2, 5]: 10 µg/mL

YCNGKRVCVCRKK--NH2 (YCNGKRVCVCRKK-NH2; cysteine pairing not given here) [M15]
MIC C. albicans [1, 3]: 6.25 µg/mL
MIC S. aureus [2, 3]: 6.35 µg/mL

YFYCNGKRVCVCR--NH2 (YFYCNGKRVCVCR-NH2; cysteine pairing not given here) [TEDFY]
MIC C. albicans [1, 6]: 100 µg/mL
MIC S. aureus [2, 6]: 50 µg/mL

kfycngkrvcvcr-NH2 [Enantiomer of TEDFK]
MIC C. albicans [1, 4]: 6.35 µg/mL
MIC S. aureus [2, 4]: 6.35 µg/mL

rcvcvrkgncyfk-NH2 [Retro-inverso of TEDFK]
MIC C. albicans [1, 4]: 6.25 µg/mL
MIC S. aureus [2, 4]: 6.25 µg/mL
